Experimental data published in patent US20130029928A1 (priority 2010, published 2013).
Where two headings read alike, the source gives them in different places.

Assay: Phase I study CXR1002-001: plasma pharmacokinetics (LC-MS/MS)
Assay type: in vivo, human
Details: human, plasma, oral; for concentration at 528 h / concentration at 528 hr: 528 hr (Day 23); for concentration at 696 h: 696 hr (Day 30); for concentration at 840 h: 840 hr (Day 36)
Description: PK samples, PD (fasting) samples, blood glucose, and blood triglyceride samples, were taken over a 6-week period.
Dose limiting toxicity (DLT) will be based on the toxicity assessments over the first 3-week period of the repeat dosing schedule. PK samples (single blood sample) were taken on the following basis: • Every 6 weeks during the repeat dosing phase • If dosing is interrupted or stopped, samples will be taken at intervals according to patient convenience • PK sampling for safety evaluation may take place at any time, as clinically indicated
Plasma samples were collected after the single 50 mg dose at the following timepoints: Pre-dose, and then 0.25, 0.5, 0.75, 1, 1.5, 2, 3, 4, 6, 24, 48, and 72 hours after administration and then once weekly at weeks 2, 3, 4, 5, and 6 (days 8, 15, 22, 29, and 36). For patients treated with the weekly repeat dose, plasma samples were collected at the following timepoints: Pre-dose and then 2, 3, 4 and 24 hours after administration for a total of 6 weeks. Thereafter a single sample was collected every 6 weeks for monitoring of exposure during long term treatment. Plasma samples were processed at site and stored at −80° C. prior to batch shipment to the analytical laboratory.

[1] = 100 mg, Patient 005 Dose 100 mg, read-out: Concentration
[2] = 100 mg, Patient 006 Dose 100 mg, read-out: Concentration
[3] = 100 mg, Patient 007 Dose 100 mg, read-out: Concentration
[4] = 200 mg, Patient 008 Dose 200 mg, read-out: Concentration
[5] = 200 mg, Patient 009 Dose 200 mg, read-out: Concentration

O=C(O)C(F)(F)C(F)(F)C(F)(F)C(F)(F)C(F)(F)C(F)(F)C(F)(F)F [CXR1002]
concentration at 360 h (100 mg, Patient 005 Dose 100 mg, 360 hr (Day 16), read-out: Concentration): 47.4 µM
concentration at 504 h (100 mg, Patient 005 Dose 100 mg, 504 hr (Day 22), read-out: Concentration): 48.4 µM
concentration at 506 h (100 mg, Patient 005 Dose 100 mg, 506 hr, read-out: Concentration): 84 µM
concentration at 507 h [1]: 74.4 µM
concentration at 508 h (100 mg, Patient 005 Dose 100 mg, 508 hr, read-out: Concentration): 87.4 µM
concentration at 528 h [1]: 57.9 µM
concentration at 672 h (100 mg, Patient 005 Dose 100 mg, 672 hr (Day 29), read-out: Concentration): 80.8 µM
concentration at 674 h (100 mg, Patient 005 Dose 100 mg, 674 hr, read-out: Concentration): 99.7 µM
concentration at 675 h (100 mg, Patient 005 Dose 100 mg, 675 hr, read-out: Concentration): 101 µM
concentration at 676 h [1]: 82.7 µM
concentration at 696 h [1]: 78.8 µM
concentration at 840 h [1]: 99.4 µM
concentration at 842 h (100 mg, Patient 005 Dose 100 mg, 842 hr, read-out: Concentration): 80 µM
concentration at 843 h (100 mg, Patient 005 Dose 100 mg, 843 hr, read-out: Concentration): 98.9 µM
concentration at 844 h (100 mg, Patient 005 Dose 100 mg, 844 hr, read-out: Concentration): 91.4 µM
concentration at 864 h (100 mg, Patient 005 Dose 100 mg, 864 hr (Day 37), read-out: Concentration): 109 µM
concentration at 92 day (100 mg, Patient 005 Dose 100 mg, Day 92): 276 µM
concentration at 0 h (100 mg, Patient 006 Dose 100 mg): 0.21 µM
concentration at 2 h [2]: 32.3 µM
concentration at 3 h [2]: 27.1 µM
concentration at 4 h (100 mg, Patient 006 Dose 100 mg, 4 hr, read-out: Concentration): 24.6 µM
concentration at 24 h (100 mg, Patient 006 Dose 100 mg, 24 hr (Day 2), read-out: Concentration): 28.2 µM
concentration at 168 h (100 mg, Patient 006 Dose 100 mg, 168 hr (Day 8), read-out: Concentration): 26.2 µM
concentration at 170 h [2]: 36.6 µM
concentration at 171 hr (100 mg, Patient 006 Dose 100 mg, 171 hr, read-out: Concentration): 41.1 µM
concentration at 172 hr (100 mg, Patient 006 Dose 100 mg, 172 hr, read-out: Concentration): 47.5 µM
concentration at 192 hr (100 mg, Patient 006 Dose 100 mg, 192 hr (Day 9), read-out: Concentration): 44.7 µM
concentration at 336 h (100 mg, Patient 006 Dose 100 mg, 336 hr (Day 15), read-out: Concentration): 33.1 µM
concentration at 338 h [2]: 49.5 µM
concentration at 339 h [2]: 55.9 µM
concentration at 360 h (100 mg, Patient 006 Dose 100 mg, 360 hr (Day 16), read-out: Concentration): 65.2 µM
concentration at 504 h (100 mg, Patient 006 Dose 100 mg, 504 hr (Day 22), read-out: Concentration): 70.5 µM
concentration at 506 h (100 mg, Patient 006 Dose 100 mg, 506 hr, read-out: Concentration): 76.4 µM
concentration at 507 hr [2]: 83.8 µM
concentration at 528 hr [2]: 97 µM
concentration at 672 h (100 mg, Patient 006 Dose 100 mg, 672 hr (Day 29), read-out: Concentration): 86.9 µM
concentration at 674 h (100 mg, Patient 006 Dose 100 mg, 674 hr, read-out: Concentration): 85.7 µM
concentration at 696 h [2]: 89.5 µM
concentration at 840 h [2]: 85.6 µM
concentration at 842 hr (100 mg, Patient 006 Dose 100 mg, 842 hr, read-out: Concentration): 179 µM
concentration at 843 hr (100 mg, Patient 006 Dose 100 mg, 843 hr, read-out: Concentration): 138 µM
concentration at 844 hr (100 mg, Patient 006 Dose 100 mg, 844 hr, read-out: Concentration): 138 µM
concentration at 864 hr (100 mg, Patient 006 Dose 100 mg, 864 hr (Day 37), read-out: Concentration): 123 µM
concentration at 0 hr (100 mg, Patient 007 Dose 100 mg): 0 nM
concentration at 2 hr [3]: 30.9 µM
concentration at 3 hr [3]: 28.6 µM
concentration at 4 hr (100 mg, Patient 007 Dose 100 mg, 4 hr, read-out: Concentration): 19.3 µM
concentration at 24 hr (100 mg, Patient 007 Dose 100 mg, 24 hr (Day 2), read-out: Concentration): 17.3 µM
concentration at 168 hr (100 mg, Patient 007 Dose 100 mg, 168 hr (Day 8), read-out: Concentration): 12.2 µM
concentration at 336 hr (100 mg, Patient 007 Dose 100 mg, 336 hr (Day 15), read-out: Concentration): 19.2 µM
concentration at 338 hr [3]: 52.8 µM
concentration at 339 hr [3]: 53.1 µM
concentration at 340 hr (100 mg, Patient 007 Dose 100 mg, 340 hr, read-out: Concentration): 55.8 µM
concentration at 360 hr (100 mg, Patient 007 Dose 100 mg, 360 hr (Day 16), read-out: Concentration): 32 µM
concentration at 504 hr (100 mg, Patient 007 Dose 100 mg, 504 hr (Day 22), read-out: Concentration): 39.7 µM
concentration at 506 hr (100 mg, Patient 007 Dose 100 mg, 506 hr, read-out: Concentration): 53.1 µM
concentration at 507 hr [3]: 65.8 µM
concentration at 508 hr (100 mg, Patient 007 Dose 100 mg, 508 hr, read-out: Concentration): 73 µM
concentration at 528 hr [3]: 63.4 µM
concentration at 0 hr (200 mg, Patient 008 Dose 200 mg): 0 nM
concentration at 2 hr [4]: 114 µM
concentration at 3 hr [4]: 102 µM
concentration at 4 h (200 mg, Patient 008 Dose 200 mg, 4 hr, read-out: Concentration): 81 µM
concentration at 24 h (200 mg, Patient 008 Dose 200 mg, 24 hr (Day 2), read-out: Concentration): 70.4 µM
concentration at 168 h (200 mg, Patient 008 Dose 200 mg, 168 hr (Day 8), read-out: Concentration): 64.6 µM
concentration at 170 h [4]: 171 µM
concentration at 171 h (200 mg, Patient 008 Dose 200 mg, 171 hr, read-out: Concentration): 143 µM
concentration at 172 h (200 mg, Patient 008 Dose 200 mg, 172 hr, read-out: Concentration): 130 µM
concentration at 192 h (200 mg, Patient 008 Dose 200 mg, 192 hr (Day 9), read-out: Concentration): 110 µM
concentration at 336 hr (200 mg, Patient 008 Dose 200 mg, 336 hr (Day 15), read-out: Concentration): 124 µM
concentration at 338 hr [4]: 147 µM
concentration at 339 hr [4]: 172 µM
concentration at 340 h (200 mg, Patient 008 Dose 200 mg, 340 hr, read-out: Concentration): 192 µM
concentration at 360 h (200 mg, Patient 008 Dose 200 mg, 360 hr (Day 16), read-out: Concentration): 211 µM
concentration at 504 h (200 mg, Patient 008 Dose 200 mg, 504 hr (Day 22), read-out: Concentration): 277 µM
concentration at 506 h (200 mg, Patient 008 Dose 200 mg, 506 hr, read-out: Concentration): 282 µM
concentration at 507 h [4]: 368 µM
concentration at 508 h (200 mg, Patient 008 Dose 200 mg, 508 hr, read-out: Concentration): 281 µM
concentration at 528 h [4]: 285 µM
concentration at 672 hr (200 mg, Patient 008 Dose 200 mg, 672 hr (Day 29), read-out: Concentration): 337 µM
concentration at 674 hr (200 mg, Patient 008 Dose 200 mg, 674 hr, read-out: Concentration): 356 µM
concentration at 675 hr (200 mg, Patient 008 Dose 200 mg, 675 hr, read-out: Concentration): 321 µM
concentration at 676 h [4]: 364 µM
concentration at 696 h [4]: 426 µM
concentration at 840 h [4]: 425 µM
concentration at 842 h (200 mg, Patient 008 Dose 200 mg, 842 hr, read-out: Concentration): 361 µM
concentration at 843 h (200 mg, Patient 008 Dose 200 mg, 843 hr, read-out: Concentration): 397 µM
concentration at 844 h (200 mg, Patient 008 Dose 200 mg, 844 hr, read-out: Concentration): 414 µM
concentration at 864 h (200 mg, Patient 008 Dose 200 mg, 864 hr (Day 37), read-out: Concentration): 354 µM
concentration at 0 h (200 mg, Patient 009 Dose 200 mg): 0 µM
concentration at 2 h [5]: 93.4 µM
concentration at 3 h [5]: 61.2 µM
concentration at 4 h (200 mg, Patient 009 Dose 200 mg, 4 hr, read-out: Concentration): 71.1 µM
concentration at 24 h (200 mg, Patient 009 Dose 200 mg, 24 hr (Day 2), read-out: Concentration): 64.6 µM
concentration at 168 h (200 mg, Patient 009 Dose 200 mg, 168 hr (Day 8), read-out: Concentration): 60.1 µM
concentration at 170 h [5]: 149 µM
concentration at 171 h (200 mg, Patient 009 Dose 200 mg, 171 hr, read-out: Concentration): 170 µM
concentration at 172 h (200 mg, Patient 009 Dose 200 mg, 172 hr, read-out: Concentration): 139 µM
concentration at 192 h (200 mg, Patient 009 Dose 200 mg, 192 hr (Day 9), read-out: Concentration): 136 µM
concentration at 338 h [5]: 161 µM
concentration at 339 h [5]: 167 µM
concentration at 340 h (200 mg, Patient 009 Dose 200 mg, 340 hr, read-out: Concentration): 153 µM
concentration at 360 h (200 mg, Patient 009 Dose 200 mg, 360 hr (Day 16), read-out: Concentration): 218 µM
concentration at 504 h (200 mg, Patient 009 Dose 200 mg, 504 hr (Day 22), read-out: Concentration): 253 µM
concentration at 506 h (200 mg, Patient 009 Dose 200 mg, 506 hr, read-out: Concentration): 285 µM
concentration at 507 h [5]: 296 µM
concentration at 508 h (200 mg, Patient 009 Dose 200 mg, 508 hr, read-out: Concentration): 362 µM
concentration at 528 h [5]: 242 µM
concentration at 672 h (200 mg, Patient 009 Dose 200 mg, 672 hr (Day 29), read-out: Concentration): 251 µM
concentration at 674 h (200 mg, Patient 009 Dose 200 mg, 674 hr, read-out: Concentration): 472 µM
concentration at 675 h (200 mg, Patient 009 Dose 200 mg, 675 hr, read-out: Concentration): 261 µM
concentration at 676 h [5]: 358 µM
concentration at 696 h [5]: 338 µM
concentration at 840 h [5]: 399 µM
concentration at 842 h (200 mg, Patient 009 Dose 200 mg, 842 hr, read-out: Concentration): 346 µM
